Assay results published in US4228187A, “Alkyl and cycloalkylthiophenylalkylaminoalkanols, their salts and the preparation thereof” (priority 1973, dated 1980).

Columns and labels:
Hist. = experiment: Antispasmodic activity, Hist.
Ac.chol. = experiment: Antispasmodic activity, Ac.chol.
guinea pig atria's = experiment: Protective activity against anoxia (guinea pig atria); set-up: key: scale: + = 10 to 20% increase in survival time; conditions: increase in survival time
From the text: (5) guinea pig atria's;
+ = increase in survival time of 10 to 20%

BaCl2 = experiment: Antispasmodic activity, BaCl2
cholesterol biosynthesis = experiment: Inhibition of cholesterol biosynthesis in vitro (rat liver); assay type: cell-based; conditions: Rattus norvegicus, AA, rat liver, mean, read-out: Inhibition of incorporation of 1-^14 C-acetate (AA)
From the text: |Inhibition of cholesterol biosynthesis in vitro (rat liver). In- |hibitory effect of suloctidil and clofibrate on the incorpora- |tion of 1-^14 [NT] and 2-^14 C-mevalonate (MVA). |are mean values and range, expressed in % of inhibition. Unless |otherwise stated, n = 3.

DL50 mouse p.o. = conditions: in vivo, po, limits of reliability (p : 0.95) in brackets
From the text: (1) the limits of reliability (p : 0.95) are given in brackets.

[1] = tested on: spontaneously hypertensive rat; experiment: Antihypertensive activity (spontaneously hypertensive rat); assay type: in vivo; conditions: 15 mg/kg per os
Experimental: (3) spontaneously hypertensive rat; 15 mg/kg per os;
± reduction of systolic pressure up to 10 mm of Hg
+ reduction of systolic pressure of 10 to 20 mm Hg
++ reduction of systolic pressure of at least 20 mm of Hg

[2] = tested on: peripheral vasodilatatory activity; experiment: Vasodilatory effect after intraarterial injection in dog; assay type: in vivo
Experimental: (1) intraarterial injection in dog (5 animals) 10, 20 and 30 μg/kg.
(2) maximum vasodilatory effect in mm of Hg.
(3) and (4) expressed in seconds.

| Molecule | Antispasmodic activity CE 100, Hist. (Hist.) | Antispasmodic activity CE 100, Ac.chol. (Ac.chol.) | Protective activity against anoxia (guinea pig atria's) | Antispasmodic activity CE 100, BaCl2 (BaCl2) | LD50 (DL50 mouse p.o.) | Anti-hypertensive activity [1] | also measured |
| --- | --- | --- | --- | --- | --- | --- | --- |
| 1-(4-methylthiophenyl)-2-n-octylaminopropanol [No 11] | 1000 μ g γ 60 ml | 1000 μ g γ 60 ml | 0 | > 1000 μ g γ 60 ml | – | – | – |
| CCOC(=O)C(C)(C)Oc1ccc(Cl)cc1 [Clofibrate, reference compound] | – | – | – | – | – | – | inhibition at 100 µM (cholesterol biosynthesis; 10^-4 M): 47.4%; inhibition at 10 µM (cholesterol biosynthesis; 10^-5 M): 4.2% |
| CCCCNC(C)C(O)c1ccc(SC(C)C)cc1 (stereo not drawn) [No 1] | 500 μ g γ 60 ml | 1000 μ g γ 60 ml | 0 | 500 μ g γ 60 ml | 680 mg/kg | – | – |
| CC(C)NC(C)C(O)c1ccc(SC(C)C)cc1 (stereo not drawn) [No 3] | – | – | – | – | 630 mg/kg | – | – |
| CCC(C)NC(C)C(O)c1ccc(SC(C)C)cc1 (stereo not drawn) [No 4] | 1000 μ g γ 60 ml | 1000 μ g γ 60 ml | 0 | 500 μ g γ 60 ml | 520 mg/kg | – | – |
| CC(C)Sc1ccc(C(O)C(C)NC(C)(C)C)cc1 (stereo not drawn) [No 5] | > 1000 μ g γ 60 ml | 1000 μ g γ 60 ml | 0 | 1000 μ g γ 60 ml | – | – | – |
| CCCCNC(CC)C(O)c1ccc(SC(C)C)cc1 (stereo not drawn) [No 6] | 500 μ g γ 60 ml | 100 μ g γ 60 ml | 0 | 1000 μ g γ 60 ml | > 1000 mg/kg | – | – |
| CCC(NC(C)C)C(O)c1ccc(SC(C)C)cc1 (stereo not drawn) [No 7] | 1000 μ g γ 60 ml | 200 μ g γ 60 ml | 0 | 1000 μ g γ 60 ml | – | – | – |
| CCCCCCCCNC(CC)C(O)c1ccc(SC(C)C)cc1 (stereo not drawn) [No 8] | 500 μ g γ 60 ml | 500 μ g γ 60 ml | 0 | 100 μ g γ 60 ml | > 4000 mg/kg | 0 | – |
| CCC(C)NC(CC)C(O)c1ccc(SC(C)C)cc1 (stereo not drawn) [No 9] | 1000 μ g γ 60 ml | 200 μ g γ 60 ml | ++ (increase in survival time of more than 25%) | 500 μ g γ 60 ml | – | – | – |
| CCCCNC(C)C(O)c1ccc(SC)cc1 (stereo not drawn) [No 10] | 1000 μ g γ 60 ml | 500 μ g γ 60 ml | + (increase in survival time of 10 to 20%) | 1000 μ g γ 60 ml | ~100 mg/kg | 0 | – |
| CCCCCCCCNC(C)C(O)c1ccc(SC)cc1 (stereo not drawn) [No 11] | 200 μ g γ 60 ml | 200 μ g γ 60 ml | 0 | 100 μ g γ 60 ml | 970 mg/kg | ++ (reduction of systolic pressure of at least 20 mm of Hg) | – |
| CCCCNC(C)C(O)c1ccc(SCC)cc1 (stereo not drawn) [No 12] | 1000 μ g γ 60 ml | 500 μ g γ 60 ml | 0 | 1000 μ g γ 60 ml | 312 mg/kg | – | – |
| CCCCCCCCNC(C)C(O)c1ccc(SCC)cc1 (stereo not drawn) [No 13] | 100 μ g γ 60 ml | 200 μ g γ 60 ml | 0 | 100 μ g γ 60 ml | 1750 mg/kg | ++ (reduction of systolic pressure of at least 20 mm of Hg) | – |
| CCCCNC(C)C(O)c1ccc(SC2CCCCC2)cc1 (stereo not drawn) [No 14] | 500 μ g γ 60 ml | 100 μ g γ 60 ml | – | 200 μ g γ 60 ml | – | – | – |
| CCCCCCCCNC(C)C(O)c1ccc(SC2CCCCC2)cc1 (stereo not drawn) [No 15] | 1000 μ g γ 60 ml | 500 μ g γ 60 ml | – | 1000 μ g γ 60 ml | ~5000 mg/kg | ++ (reduction of systolic pressure of at least 20 mm of Hg) | – |
| CCC(C)NC(C)C(O)c1ccc(SC2CCCCC2)cc1 (stereo not drawn) [No 16] | 500 μ g γ 60 ml | 200 μ g γ 60 ml | – | 200 μ g γ 60 ml | – | – | – |
| CCCCNC(CC)C(O)c1ccc(SC)cc1 (stereo not drawn) [No 17] | 1000 μ g γ 60 ml | 1000 μ g γ 60 ml | 0 | 1000 μ g γ 60 ml | 122 mg/kg | + (reduction of systolic pressure of 10 to 20 mm Hg) | – |

| Molecule | Antispasmodic activity CE 100, Hist. (Hist.) | Antispasmodic activity CE 100, Ac.chol. (Ac.chol.) | Protective activity against anoxia (guinea pig atria's) | Antispasmodic activity CE 100, BaCl2 (BaCl2) | LD50 (DL50 mouse p.o.) | Anti-hypertensive activity [1] | also measured |
| --- | --- | --- | --- | --- | --- | --- | --- |
| CCCCCCCCNC(CC)C(O)c1ccc(SC)cc1 (stereo not drawn) [No 18] | 200 μ g γ 60 ml | 200 μ g γ 60 ml | 0 | 500 μ g γ 60 ml | ~3500 mg/kg | 0 | – |
| CCCCNC(CC)C(O)c1ccc(SCC)cc1 (stereo not drawn) [No 19] | 1000 μ g γ 60 ml | 1000 μ g γ 60 ml | 0 | 500 μ g γ 60 ml | 640 mg/kg | – | – |
| CCCCCCCCNC(CC)C(O)c1ccc(SCC)cc1 (stereo not drawn) [No 20] | 200 μ g γ 60 ml | 100 μ g γ 60 ml | 0 | 100 μ g γ 60 ml | ~2450 mg/kg | 0 | – |
| CC(NC(C)(C)C)C(O)c1ccc(SC2CCCCC2)cc1 (stereo not drawn) [No 21] | 500 μ g γ 60 ml | 100 μ g γ 60 ml | – | 500 μ g γ 60 ml | – | 0 | – |
| CC(C)CSc1ccc(C(O)C(C)NC(C)C)cc1 (stereo not drawn) [No 22] | 500 μ g γ 60 ml | 1000 μ g γ 60 ml | 0 | 500 μ g γ 60 ml | 1280 mg/kg | – | – |
| CCC(C)NC(C)C(O)c1ccc(SCC(C)C)cc1 (stereo not drawn) [No 23] | 200 μ g γ 60 ml | 200 μ g γ 60 ml | 0 | 500 μ g γ 60 ml | – | – | – |
| CC(C)CSc1ccc(C(O)C(C)NC(C)(C)C)cc1 (stereo not drawn) [No 24] | 200 μ g γ 60 ml | 1000 μ g γ 60 ml | – | 500 μ g γ 60 ml | – | – | – |
| CCCCNC(C)C(O)c1ccc(SCC(C)C)cc1 (stereo not drawn) [No 25] | 200 μ g γ 60 ml | 100 μ g γ 60 ml | 0 | 200 μ g γ 60 ml | 1350 mg/kg | – | – |
| CCCCCCCCNC(C)C(O)c1ccc(SCC(C)C)cc1 (stereo not drawn) [No 26] | 200 μ g γ 60 ml | 200 μ g γ 60 ml | 0 | 200 μ g γ 60 ml | > 4000 mg/kg | – | – |
| CCC(NC(C)C)C(O)c1ccc(SC2CCCCC2)cc1 (stereo not drawn) [No 27] | 500 μ g γ 60 ml | 200 μ g γ 60 ml | – | 200 μ g γ 60 ml | – | – | – |
| CCCCCCNC(C)C(O)c1ccc(SC(C)C)cc1 (stereo not drawn) [No 28] | – | – | – | – | 1450 mg/kg | – | – |
| CCCCCCCNC(C)C(O)c1ccc(SC(C)C)cc1 (stereo not drawn) [No 29] | – | – | – | – | ~2400 mg/kg | – | – |
| CCCCCCCCNC(C)C(O)c1ccc(SC2CCCC2)cc1 (stereo not drawn) [No 32] | – | – | – | – | > 4000 mg/kg | ++ (reduction of systolic pressure of at least 20 mm of Hg) | – |
| CC(C(O)c1ccc(SC2CCCCC2)cc1)N1CCCCC1 (stereo not drawn) [No 33] | > 1000 μ g γ 60 ml | > 1000 μ g γ 60 ml | – | > 1000 μ g γ 60 ml | – | – | – |
| CCC(C(O)c1ccc(SC2CCCCC2)cc1)N1CCCCC1 (stereo not drawn) [No 34] | 1000 μ g γ 60 ml | 100 μ g γ 60 ml | – | 200 μ g γ 60 ml | – | – | – |
| CC(Cc1ccccc1)NC(C)C(O)c1ccc(SC(C)C)cc1 (stereo not drawn) [No 35] | 200 μ g γ 60 ml | 500 μ g γ 60 ml | – | 500 μ g γ 60 ml | 2100 mg/kg | ± (reduction of systolic pressure up to 10 mm of Hg) | – |
| COc1ccc(Cc2nccc3cc(OC)c(OC)cc23)cc1OC [papaverine, reference compound] | – | – | – | – | – | – | Amplitude (maximum vasodilatory effect) ([2]; 10 μg/kg): 40 mm of Hg; Duration of effect ([2]; 10 μg/kg): 43 s; Amplitude (maximum vasodilatory effect) ([2]; 20 μg/kg): 51 mm of Hg; Duration of effect ([2]; 20 μg/kg): 45 s; Amplitude (maximum vasodilatory effect) ([2]; 30 μg/kg): 54 mm of Hg; Duration of effect ([2]; 30 μg/kg): 47 s |
